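Each compound was tested at five concentrations against cells in 96-well plates for 48 hours. At the GI50, growth is halved. TGI: total growth inhibition.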
Experiments:
Experiment in all cases: growth of human tumour cells (NCI), 48 h
LXFL 529 NSCLC = test system: LXFL 529 NSCLC
DLD-1 colon = test system: DLD-1 colon
CAKI-1 renal = test system: CAKI-1 renal
K-562 leukemia = test system: K-562 leukemia
NCI-H23 lung = test system: NCI-H23 lung
XF 498 CNS = test system: XF 498 CNS
SNB-19 CNS = test system: SNB-19 CNS
DMS 273 small cell lung = test system: DMS 273 small cell lung
M19-MEL melanoma = test system: M19-MEL melanoma
RXF-631 renal = test system: RXF-631 renal
KM20L2 colon = test system: KM20L2 colon
A549 NSCLC = test system: A549 NSCLC
DMS 114 small cell lung = test system: DMS 114 small cell lung
SNB-78 CNS = test system: SNB-78 CNS
HOP-18 NSCLC = test system: HOP-18 NSCLC
HS 578T breast = test system: HS 578T breast

Row | SMILES | TGI (LXFL 529 NSCLC) [µM] | TGI (DLD-1 colon) [µM] | TGI (CAKI-1 renal) [µM] | TGI (K-562 leukemia) [µM] | TGI (NCI-H23 lung) [µM] | TGI (XF 498 CNS) [µM] | TGI (SNB-19 CNS) [µM] | TGI (DMS 273 small cell lung) [µM] | TGI (M19-MEL melanoma) [µM] | TGI (RXF-631 renal) [µM] | TGI (KM20L2 colon) [µM] | TGI (A549 NSCLC) [µM] | TGI (DMS 114 small cell lung) [µM] | TGI (SNB-78 CNS) [µM] | TGI (HOP-18 NSCLC) [µM] | GI50 (KM20L2 colon) [µM] | GI50 (DMS 114 small cell lung) [µM] | TGI (HS 578T breast) [µM]
1 | C/C=C1\CN2CCc3c([nH]c4ccccc34)C2C=C1CCO (stereo not given) | > 340 | > 340 | > 340 | > 340 | > 340 | > 340 | > 340 | > 340 | > 340 | > 340 | > 340 | > 340 | > 340 | – | – | – | – | –
2 | C=C(C(=C)N1N=NC2C3CCC(C3)C21)N1N=NC2C3CCC(C3)C21 (stereo not given) | > 100 | > 100 | > 100 | > 100 | > 100 | > 100 | > 100 | > 100 | > 100 | > 100 | – | > 100 | > 100 | > 100 | > 100 | – | – | –
3 | CCOC(=O)c1cnc2sc3ccc4ccccc4c3n2c1=O | > 100 | > 100 | 99.4 | > 100 | > 100 | – | > 100 | > 100 | > 100 | > 100 | > 100 | > 100 | > 100 | > 100 | > 100 | – | – | –
4 | CC(=O)O[C@@]12CO[C@@H]1C[C@@H](O)[C@@]1(C)C(=O)[C@H](O)C3=C(C)[C@@H](OC(=O)[C@H](O)[C@@H](NC(=O)c4ccccc4)c4ccccc4)C[C@@](O)([C@@H](OC(=O)c4ccccc4)C12)C3(C)C (stereo not given in full) | – | – | > 100 | > 100 | – | – | > 100 | 13.5 | 70.9 | – | 0.0985 | > 100 | 22.8 | – | – | – | – | –
5 | C#CCN(N=O)C(=O)NCCCCC(NC(C)=O)C(=O)NCc1ccccc1 (stereo not given) | > 100 | > 100 | > 100 | > 100 | > 100 | > 100 | > 100 | – | > 100 | – | > 100 | > 100 | > 100 | > 100 | > 100 | – | – | –
6 | COC(=O)C(Br)C1CCc2ccccc21 (stereo not given) | > 100 | > 100 | > 100 | > 100 | > 100 | – | > 100 | > 100 | > 100 | > 100 | > 100 | > 100 | > 100 | – | > 100 | – | – | –
7 | O=C1c2ccccc2C(=O)C1C(c1ccc(F)cc1)C1C(=O)c2ccccc2C1=O | > 100 | > 100 | > 100 | > 100 | > 100 | > 100 | > 100 | > 100 | > 100 | > 100 | > 100 | > 100 | > 100 | > 100 | > 100 | – | – | –
8 | COC(=O)C(C(=O)C(=O)Nc1cccc([N+](=O)[O-])c1)c1nc2ccc([N+](=O)[O-])cc2[nH]c1=O (stereo not given) | > 100 | > 100 | > 100 | > 100 | > 100 | > 100 | > 100 | > 100 | > 100 | > 100 | > 100 | > 100 | > 100 | > 100 | > 100 | – | – | –
9 | NC1=NN(c2ccccc2)C(=O)C1C(=O)C(=O)Nc1nccs1 (stereo not given) | > 100 | > 100 | > 100 | > 100 | > 100 | – | > 100 | > 100 | > 100 | > 100 | > 100 | > 100 | > 100 | > 100 | > 100 | – | – | –
10 | Cc1ccc(C(=O)/C=C/c2cccc([N+](=O)[O-])c2)cc1 | > 100 | > 85.8 | > 100 | 66.5 | > 100 | – | > 100 | > 100 | > 62.3 | > 100 | > 100 | > 100 | > 80.9 | > 100 | > 100 | – | – | –
11 | COc1ccc(NC(=O)C(C)Oc2ccc(OCC3CCCCC3)cc2)cc1 (stereo not given) | > 100 | > 100 | – | > 100 | 68.3 | > 100 | > 100 | > 100 | > 100 | – | – | > 100 | > 100 | > 100 | – | – | – | –
12 | COc1ccc(/C=C2\CCC(CCN(C)C)(C3=CCCC3)C2=O)cc1Br (stereo not given) | 15.8 | 16.4 | 21.2 | 5.23 | 29 | 8.72 | 22.1 | 14.6 | 7.86 | 31.1 | 3.56 | 24 | 14.9 | 30.4 | 25.2 | – | – | –
13 | O=c1cc(-c2ccco2)[nH]c2cc3c(cc12)OCO3 | > 100 | > 100 | – | > 100 | > 100 | 82.4 | > 100 | > 100 | > 100 | > 100 | 66.8 | > 100 | > 100 | – | – | 21.2 | 37.2 | –
14 | C=C1C(OC(=O)/C=C/c2ccccc2)CC(OC(C)=O)C2(C)C1CC1CC(OC(C)=O)C(C)=C(C(OC(C)=O)C2OC(C)=O)C1(C)C (stereo not given) | > 100 | – | > 100 | > 100 | – | – | > 100 | > 100 | > 100 | > 100 | > 100 | > 100 | > 100 | > 100 | > 100 | – | – | –
15 | CN(C)c1snc2c1c(=O)n(C)c(=O)n2C | > 100 | > 100 | > 100 | > 100 | > 100 | > 100 | > 100 | > 100 | > 100 | > 100 | > 100 | > 100 | > 100 | – | > 100 | – | – | –
16 | CCCCNC(=O)C1C2CCC(O2)C1C(=O)O (stereo not given) | 34.6 | 49.4 | – | – | > 100 | 19.2 | 58.7 | > 100 | 41.4 | > 100 | 27.4 | > 100 | 28.2 | > 100 | 90.9 | – | – | –
17 | COc1ccc(/C(=C/n2ccnc2)C(O)c2ccc(OC)c(OC)c2)cc1OC (stereo not given) | – | > 100 | – | > 100 | > 100 | – | > 100 | > 100 | > 100 | – | > 100 | – | – | – | > 100 | – | – | –
18 | CCc1cc(CCC(=O)Nc2ccccc2[N+](=O)[O-])[nH]c(=S)n1 | > 100 | > 100 | – | > 100 | > 100 | – | > 100 | – | > 100 | > 100 | > 100 | > 100 | > 100 | > 100 | > 100 | – | – | –
19 | C[N+](C)(C)CC(=O)N/N=C(\C(=O)NC1=C(Cl)C(=O)c2ccccc2C1=O)C(C#N)c1nc(-c2ccc([N+](=O)[O-])cc2)cs1 (stereo not given) | 21.4 | 29.5 | 48.6 | 61.1 | 11.4 | 21.1 | 39.8 | 33.7 | 2.2 | – | 42.5 | 19.4 | 9.62 | 48.2 | 18 | – | – | 40.6
20 | C=CCN1/C(=C2\SC(=S)N(c3ccc(C)cc3)C2=O)Sc2c1nc[nH]c2=O | > 100 | > 100 | > 100 | > 100 | > 100 | > 100 | > 100 | > 100 | > 100 | – | > 100 | > 100 | > 100 | > 100 | – | – | – | –
